Results taken from patent US11865124B2, “Vitamin c and doxycycline: a synthetic lethal combination therapy for eradicating cancer stem cells (CSCS)” (priority 2017, dated 2024).
Where two headings read alike, the source gives them in different places.

Key:
MCF7-DoxyR cells [1] = experiment: Mammosphere formation assay (CSC propagation) in doxycycline-resistant MCF7 cells; assay type: cell-based
Source text: To test this hypothesis, the inventors generated a cancer cell sub-population metabolically synchronized toward a glycolytic phenotype by chronically treating MCF7 cells with the FDA-approved antibiotic doxycycline, a mitochondrial inhibitor. Briefly, MCF7 cells were obtained from ATCC and cultured in DMEM (Sigma Aldrich). MCF7 cells resistant to doxycycline (MCF7-DoxyR cells) were selected by a stepwise exposure to increasing concentrations of doxycycline. […] It should be appreciated that other cancer cell lines and other mitochondrial (oxidation) inhibitors may be used.
To more directly assess functional CSC activity, mammosphere formation assays may be used. Briefly, a single cell suspension of MCF7 or MCF7 DoxyR cells may be prepared using enzymatic (1× Trypsin-EDTA, Sigma Aldrich), and manual disaggregation (25-gauge needle). Cells may be plated at a density of 500 cells/cm2 in mammosphere medium (DMEM-F12/B27/20-ng/ml EGF/PenStrep) in nonadherent conditions, in culture dishes coated with (2-hydroxyethylmethacrylate) (poly-HEMA, Sigma), in the presence of Atovaquone (FIG. 6A) or Chloroquine (FIG. 6B). Cells may be grown for 5 days and maintained in a humidified incubator at 37° C. at an atmospheric pressure in 5% (v/v) carbon dioxide/air. After 5 days for culture, spheres larger than 50 μm may be counted using an eye piece graticule, and the percentage of cells plated which formed spheres may be calculated. Mammosphere assays may be performed in triplicate and repeated three times independently.
The present approach further involves methods of testing the efficacy of glycolysis inhibitors on CSC propagation using other clinically-approved drugs that functionally behave as OXPHOS inhibitors (Irinotecan, Sorafenib, Niclosamide) or glycolysis inhibitors (Stiripentol) on mammosphere formation. Briefly, MCF7 DoxyR cells were cultured in low attachment plates and treated with Vehicle or increasing concentrations of the lactate dehydrogenase (LDH) inhibitor Stiripentol (2 μM to 100 μM) (FIG. 11A) or the OXPHOS inhibitors Irinotecan (500 nM to 80 μM) (FIG. 11B), Sorafenib (500 nM to 40 μM) (FIG. 11C), Berberine Chloride (500 nM to 10 μM) (FIG. 11D) and Niclosamide (FIG. 11E-F) for 5 days before counting. Independent experiments were performed in triplicate.

MCF7 CSCs = details: control MCF7 CSCs; Bonuccelli et al, Oncotarget 2017; read-out: IC-50, MCF7 CSC propagation; cited from earlier work
MCF7-DoxyR cells [2] = experiment: Proliferation assay by EdU incorporation (flow cytometry); assay type: cell-based; details: MCF7-DoxyR cells (chronic doxycycline) vs MCF7 cells
Source text: To test this hypothesis, the inventors generated a cancer cell sub-population metabolically synchronized toward a glycolytic phenotype by chronically treating MCF7 cells with the FDA-approved antibiotic doxycycline, a mitochondrial inhibitor. Briefly, MCF7 cells were obtained from ATCC and cultured in DMEM (Sigma Aldrich). MCF7 cells resistant to doxycycline (MCF7-DoxyR cells) were selected by a stepwise exposure to increasing concentrations of doxycycline. Specifically, MCF7 cells were initially exposed to 12.5 μM doxycycline, followed by 3 weeks of treatment with 25 μM doxycycline, followed by 3 weeks of treatment with 50 μM doxycycline. […]
To determine functional effects on doxycycline on CSC propagation, proliferation may be measured by determining relative levels of EdU incorporation (EdU refers to the alkyne-containing thymidine analog (5-ethynyl-2′-deoxyuridine) which is incorporated into DNA during active DNA synthesis). […] EdU was detected after permeabilization by staining cells with Click-iT Plus reaction cocktail containing the Fluorescent dye picolylazide for 30 min at room temperature. Samples were then washed and analyzed using flow cytometer. […] Data were analyzed using FlowJo software. FIGS. 7A-B show MCF7-DoxyR cells have a reduced ability to proliferate by more than 60%, as measured using EdU-incorporation.

MCF7-DoxyR cells [3] = experiment: Cell migration, wound healing scratch assay; assay type: cell-based; details: MCF7-DoxyR cells (chronic doxycycline) vs MCF7 cells, 24 h
Source text: To test this hypothesis, the inventors generated a cancer cell sub-population metabolically synchronized toward a glycolytic phenotype by chronically treating MCF7 cells with the FDA-approved antibiotic doxycycline, a mitochondrial inhibitor. Briefly, MCF7 cells were obtained from ATCC and cultured in DMEM (Sigma Aldrich). MCF7 cells resistant to doxycycline (MCF7-DoxyR cells) were selected by a stepwise exposure to increasing concentrations of doxycycline. Specifically, MCF7 cells were initially exposed to 12.5 μM doxycycline, followed by 3 weeks of treatment with 25 μM doxycycline, followed by 3 weeks of treatment with 50 μM doxycycline. The doxycycline-resistant MCF7 cells were then routinely maintained in regular medium supplemented with 25 μM Doxycycline. It should be appreciated that other cancer cell lines and other mitochondrial (oxidation) inhibitors may be used.
The present approach further involves methods of analyzing the effects of chronic treatment on functionality by considering cell migration. […] The migration assay was evaluated using Incucyte Zoom (Essen Bioscience). The rate of migration was measured by quantifying the % of wound closure area, determined using the software ImageJ, according to the formula: % of wound closure=[(At=0 h−At=Δ h)/At=0 h]×100%. […] Statistical significance was measured using the t-test. […]

[4] = Homo sapiens, mammosphere formation, MCF7 DoxyR cells, read-out: IC-50, DoxyR CSC propagation
[5] = Homo sapiens, MCF7, 120 h, read-out: inhibition of CSC propagation of MCF7-DoxyR cells
[6] = Homo sapiens, 120 h, mammosphere formation, MCF7 DoxyR cells, 5 days, read-out: IC-50, DoxyR CSC propagation

Compound: O=CC[C@@H](O)[C@H](O)[C@H](O)CO [2-DG, 2-deoxy-glucose]
- inhibition at 10000 µM (MCF7-DoxyR cells [1]; Homo sapiens, MCF7, 10 mM 2-DG, read-out: inhibition of propagation of DoxyR CSCs): > 90%
- inhibition at 20000 µM (MCF7-DoxyR cells [1]; Homo sapiens, MCF7, 20 mM 2-DG, read-out: inhibition of propagation of DoxyR CSCs): 100%

Compound: O=C1C(O)=C([C@H]2CC[C@H](c3ccc(Cl)cc3)CC2)C(=O)c2ccccc21 [Atovaquone]
- inhibition at 1 µM (MCF7-DoxyR cells [1]; Homo sapiens, MCF7, 120 h, 1 μM Atovaquone, mammospheres, 5 days): > 85%

Compound: COc1ccc2cc3[n+](cc2c1OC)CCc1cc2c(cc1-3)OCO2 [Berberine, Berberine Chloride]
- IC50 (MCF7-DoxyR cells [1]; [4]): ~1 µM

Compound: CCN(CC)CCCC(C)Nc1ccnc2cc(Cl)ccc12 (centres unmarked) [Chloroquine]
- inhibition at 25 µM (MCF7-DoxyR cells [1]; [5]): > 75%
- inhibition at 50 µM (MCF7-DoxyR cells [1]; [5]): > 90%

Compound: CCc1c2c(nc3ccc(OC(=O)N4CCC(N5CCCCC5)CC4)cc13)-c1cc3c(c(=O)n1C2)COC(=O)[C@]3(O)CC [Irinotecan]
- IC50 (MCF7-DoxyR cells [1]; [6]): ~0.5 µM

Compound: O=C(Nc1ccc([N+](=O)[O-])cc1Cl)c1cc(Cl)ccc1O [Niclosamide]
- IC50 (MCF7-DoxyR cells [1]; [6]): ~0.1 µM

Compound: CNC(=O)c1cc(Oc2ccc(NC(=O)Nc3ccc(Cl)c(C(F)(F)F)c3)cc2)ccn1 [Sorafenib]
- IC50 (MCF7-DoxyR cells [1]; Homo sapiens, MCF7, read-out: IC-50, DoxyR CSC propagation): 0.5 to 1 µM

Compound: CC(C)(C)C(O)/C=C/c1ccc2c(c1)OCO2 (centres unmarked) [Stiripentol]
- IC50 (MCF7-DoxyR cells [1]; [4]): 10 to 50 µM

Compound: O=C1O[C@H]([C@@H](O)CO)C(O)=C1O [Vitamin C, ascorbic acid]
- inhibition at 250 µM (MCF7-DoxyR cells [1]; Homo sapiens, MCF7, 250 μM Vitamin C): > 90%
- inhibition at 500 µM (MCF7-DoxyR cells [1]; Homo sapiens, MCF7, 500 μM Vitamin C): 100%
- IC50 (MCF7-DoxyR cells [1]; [4]): 100 to 250 µM
- fold more sensitive, DoxyR CSCs vs control MCF7 CSCs (MCF7-DoxyR cells [1]; ratio of IC-50 in MCF7 CSCs to DoxyR CSCs, identical assay conditions): 4-10 fold
- IC50 (MCF7 CSCs): 1000 µM

Compound: C[C@H]1c2cccc(O)c2C(=O)C2=C(O)[C@]3(O)C(=O)C(C(N)=O)=C(O)[C@@H](N(C)C)[C@@H]3[C@@H](O)[C@@H]21 [doxycycline]
- reduction in ability to proliferate (EdU-incorporation) (MCF7-DoxyR cells [2]): more than 60%
- reduction in cell migration (scratch assay) (MCF7-DoxyR cells [3]): greater than 50%
